Test system: AML1-ETO transformed cells
Assay: In vitro drug treatment of primary murine hematopoietic cells transformed by AML1-ETO (RTTA)
Format: cell-based, mouse
Description: Transduction using concentrated viral supernatant expressing the oncogene of interest was carried out by centrifugation (spinoculation) at 800 g at 32° C. for 2 hours in the presence of 5 μg ml^-1 polybrene (Sigma-Aldrich). Cells were subsequently plated in 1% methylcellulose medium ([…]; Stem Cell Technologies) containing 20 ngml^-1 SCF, 10 ngml^-1 IL-3, 10 ngml^-1 IL-6 and 10 ngml^-1 granulocyte macrophage colony-stimulating factor (GM-CSF) and appropriate selection antibiotic. Colonies were counted after 7 days of culture and replated every 6-7 days at 5×103-1.5×10^4 cell density. Re-plating was performed weekly to generate primary cell lines for further analysis. After the third or fourth round of plating, cells were cultured in R20/20 medium (RPMI 1640, 20% FCS, 20% WEHI-conditioned medium, 2 mM L-glutamine, 100 U/ml penicillin, and 100 μg/ml streptomycin) supplemented with 20 ngml^-1 stem cell factor (SCF), 10 ngml^-1 interleukin (IL)-3, and 10 ngml^-1 IL-6 to establish cell lines. All recombinant murine cytokines were from PeprotechEC. […] Colonies were scored 6-7 days after plating. For other in vitro studies, mouse leukemic cells and primary AML cell lines were subjected to continuously Olaparib (1 μM) or LiCl (8 mM) treatment in liquid culture for whole duration as indicated in the figures or figure legends. For human leukemic cell lines, experiments were performed as described above with 5 μM Olaparib. Cells were cytospun onto a glass slide at 400 g for 5 minutes and then fixed for 10 minutes with 2% formaldehyde/0.2% glutaraldehyde (Sigma Aldrich). Cells were then washed with PBS, and then incubated at 37° C. for at least 2 hours with a staining solution (30 mM Citric Acid/Phosphate buffer, 5 mM K4Fe(CN)6, 5 mM K3Fe(CN)6, 150 mM NaCl, 2 mM MgCl2, 1 mg/ml X-Gal) (All reagents from Sigma-Aldrich)62. Cells were counted in at least 5 fields for each slide, for a total of over 100 cells. The percentage of senescent cells was calculated by the percentage of the number of blue cell in the field. Cells were cytospun onto a glass slide at 400 g for 5 minutes and then fixed for 30 minutes in 4% PFA and permeabilized and blocked in 0.8% Tx-100, 10% FBS/1% BSA (Sigma-Aldrich) in PBS for 15 min at room temperature. Mouse anti mouse γH2AX ([…]) (Upstate clone JBW301#05-636) and rabbit anti mouse RAD51 (Santa Cruz Biotecnology […]# sc-8349) were diluted in TBS containing 10% FBS/1% BSA and incubated overnight at 4C. […] Slides were then washed five times at 10 min each with PBS. Slides were briefly washed in water and air-dried prior to mounting with Mowiol-DABCO and a coverslip. Cells were counted in at least 5 fields for each slide, for a total of over 100 cells per condition. 1×10^5 cells were cytospun for 5 min at 300 g onto glass slides. Slides were then stained with May-Grunwald solution (Sigma-Aldrich) for 3 min at room temperature. After washing in water, they were incubated for 20 min in Giemsa solution (Sigma-Aldrich) (1:20 in water). Slides were washed again in water before being mounted with Mowiol. Cells were counted in at least 5 fields for each slide, for a total of over 100 cells per condition. NBT reduction assay were performed to determine myeloid differentiation. […] Cells were then washed in PBS and the differentiated cells were indicated by the deposition of dark blue insoluble formazan (NBT positive cells) and the percentage of differentiated cells were counted under microscopy. At least 200 cells were counted in most of the cases.

## O=C(c1cc(Cc2n[nH]c(=O)c3ccccc23)ccc1F)N1CCN(C(=O)C2CC2)CC1 [Olaparib, 4-[(3-[(4-cyclopropylcarbonyl)piperazin-4-yl]carbonyl)-4-fluorophenyl]methyl(2H)-phthalazin-1-one]
1 uM Olaparib, methylcellulose 7 days, p<0.001
  suppression of colony forming ability: about 90%
PARPi 24 hrs and 48 hrs
  senescence (β-galactosidase staining): underwent significant senescence
PARPi treatment for 6 hours
  Rad51 recruitment to DNA damage sites (RAD51 foci): no significant Rad51 recruitment
Time course PARPi treatment
  percentage of differentiation (morphology and NBT reduction): significantly increased the percentage of differentiation
Upon PARPi treatment
  cells with γH2AX and Rad51 foci ratio greater than 2: around 80%

From patent US10799501B2, “Combination of an inhibitor of PARP with an inhibitor of GSK-3 or DOT1L” (King's College London, priority 2015, dated 2020)
